Data from the SangsterLogP compilation.

Test: method code SF, from Hansch, C. & Leo, A. (1987). Log P database [Dataset]. Pomona College Medicinal Chemistry Project.

Row | Structure (SMILES) | logP
1 | CCOP(=O)(OCC)Oc1ccc(SC)c(C)c1 | 3.28
2 | CS(=O)(=O)NN=Cc1ccccc1 | 1.2
3 | CCCCC1OC(=O)c2cc([N+](=O)[O-])ccc21 (stereo unspecified) | 2.92
4 | O=C(Nc1ccc(Cl)c(Cl)c1)C1CCCCC1 | 4.72
5 | CC(=O)Nc1ccccc1C#N | 0.57
6 | CC(=O)c1csc2ccccc12 | 2.78
7 | O=C(CNC(=O)c1ccccc1)Oc1cccc(Cl)c1 | 3.21
8 | O=C1OC2(CCCC2)c2ccccc21 | 2.56
9 | COC(=O)c1c(C)n(C)c2c1c1c(O)c3c(O)c(C)c4c(c32)C(=O)C(C)(OC=CC(OC)C(C)C(OC(C)=O)C(C)C(O)C(C)C(O)C(C)C=CC=C(C)C(=O)N1)O4 (stereo unspecified) | 1.46
10 | COC(=O)c1ccsc1 | 1.76
11 | CC(=O)Oc1ccccc1I | 2.55
12 | CC(=O)N(c1ccccc1)c1ccccc1 | 2.05
13 | CN(Cc1ccc(C#N)cc1)/N=N/c1ccc(C(=O)O)cc1 | 3.6
14 | NC(=O)N/N=C/c1ccccc1 | 1.27
15 | c1ccc(OCCOc2ccccc2)cc1 | 3.81
16 | NC1=NC(C(F)(F)F)(C(F)(F)F)NC1(C(F)(F)F)C(F)(F)F | 3.35
17 | COc1ccc(-c2nc3cnccc3[nH]2)c(OCCCCl)c1 | 3.53
18 | CC(=O)N(c1ccccc1)S(C)(=O)=O | 0.29
19 | Cc1ccc2[nH]c(CCCCc3nc4cc(C)ccc4[nH]3)nc2c1 | 1.64
20 | O=S1(=O)NC=Nc2ccc(Cl)cc21 | 1.07
21 | CCOC(=O)C(=Cc1ccc(Cl)cc1Cl)C(C)=O | 3.67
22 | O=Nc1ccc(O)c2ccccc12 | 2.27
23 | c1ccc2c(c1)OCO2 | 2.08
24 | CCCCCCC1OC(=O)c2ccccc21 (stereo unspecified) | 3.55
25 | O=S(=O)(Cc1ccccc1)c1ccccc1 | 2.05
26 | c1cnc2[nH]ccc2c1 | 1.82

Row | Structure (SMILES) | logP
27 | CN(C(=O)CC[N+](=O)[O-])c1ccc(S(=O)(=O)N(C)C)cc1 | 0.3
28 | CCOC(=O)C(=Cc1ccccc1[N+](=O)[O-])C(=O)OCC | 2.54
29 | CCNC(N)=O | -0.74
30 | O=C1CCCCO1 | -0.35
31 | CCOC(=O)C(=Cc1ccccc1Cl)C(C)=O | 2.84
32 | CCc1cccs1 | 2.87
33 | CCCCC1OC(=O)c2ccccc21 (stereo unspecified) | 2.8
34 | O=Cc1ccsc1 | 1.01
35 | N#CN=[N+]([O-])c1ccc([N+](=O)[O-])cc1 | 1.51
36 | FC(F)F | 0.64
37 | COc1ccccc1C=CC(=O)OCCOc1ccc(C=O)cc1OC | 3.65
38 | CCCCCC1(CC)C(=O)NC(=O)NC1=O | 2.24
39 | Oc1ccccc1C(F)(F)F | 2.73
40 | OC(C1CO1)C(O)C1CO1 (stereo unspecified) | -1.29
41 | CC(=O)Nc1ccc(Oc2ccccc2)cc1 | 3.13
42 | O=C(O)c1csc(C=Cc2ccc([N+](=O)[O-])o2)n1 | -0.03
43 | CN(C)c1ccc([N+]([O-])=NC#N)cc1 | 2.3
44 | O=C1c2ccccc2-c2ccccc21 | 3.58
45 | O=c1[nH]c2ccccc2[nH]c1=O | 0.2
46 | O=CNc1nccs1 | 0.54
47 | Cc1ccsc1 | 2.34
48 | c1cnc2ccc3ncccc3c2c1 | 2.05
49 | COc1cc(S(C)=O)ccc1-c1cn2ccnc(OC)c2n1 (stereo unspecified) | 1.49
50 | OC[C@@H](O)[C@@H](O)CO | -2.29
51 | CNc1ccc(S(=O)(=O)N(C)C)cc1 | 1.43
52 | N#CC(Cl)(Cl)Cl | 2.09

Row | Structure (SMILES) | logP
53 | CCOC(=O)C(=Cc1cccc(OC)c1)C(C)=O | 2.34
54 | CCCCOC(=O)c1cccc(C(=O)OCCCC)c1 | 4.26
55 | CC(C)Oc1ccccc1O | 2.09
56 | CC(=O)C(=Cc1ccccc1C)C(C)=O | 1.98
57 | COP(=O)(NC(C)(C)C)Oc1cc(Cl)c(Cl)cc1Cl (stereo unspecified) | 3.83
58 | O=c1[nH]c(=O)n([C@H]2C[C@H](O)[C@@H](CO)O2)cc1C(F)(F)F | -0.46
59 | S=C(Nc1ccccc1)c1ccccc1 | 3.03
60 | CC(=O)NO | -1.59
61 | NC(=O)/C=C/c1ccccc1 | 1.42
62 | CC(=O)Nc1ccc(OC(C)=O)cc1 | 0.8
63 | O=c1n[n+]([O-])ccn1Cc1ccccc1 | 0.19
64 | c1ccc2nc3ccccc3nc2c1 | 2.84
65 | Cc1csc(C=Cc2ccc([N+](=O)[O-])o2)n1 | 1.53
66 | CN(C)C(=O)Nc1ccc(C(C)(C)C)cc1 | 3.1
67 | O=C(O)c1ccc(NCc2ccccc2)cc1 | 2.44
68 | CCOC(=O)CON=Cc1ccc(OCCOC(=O)c2ccccc2OC)c(OC)c1 | 3.27
69 | CN(C)c1ccc(C(N)=O)cc1 | 1.14
70 | CCCCN(CCCC)C(=O)COc1ccccc1 | 3.23
71 | CN(C)/N=N/c1cccc([N+](=O)[O-])c1 | 2.75
72 | O=C(Nc1ccccc1)Nc1ccc(Cl)c(Cl)c1 | 4.7
73 | O=c1nccc[nH]1 | -1.62
74 | CC(C)(C)C(=O)Nc1ccccc1 | 1.99
75 | CCc1ccsc1 | 2.82
76 | CCOC(=O)c1ccc(NC(=O)C(F)(F)F)cc1 | 2.25
